The subject of this test is Mycobacterium tuberculosis. Kind of test: Antitubercular activity against Mycobacterium africanum ATCC 25420 assessed as bacterial growth inhibition by agar dilution method. The format is functional. The following applies: variant africanum ATCC 25420. For orientation: In agar dilution, organisms are placed on agar that contains the substance at set levels.

The structures appear in SMILES notation. ≈ marks a conversion by molar mass, not a printed value.

On to `O=C1CCc2c(cccc2OC[C@]2(O)CCN(c3c(F)cc(Cl)cc3F)C[C@H]2O)N1`, for which the MIC (as a rule, the lowest concentration that inhibits growth of the organism) was found to be 2 ng/mL (≈ 4.56 nM).
